{"source": "patent US6849660B1", "about": "“Antimicrobial biaryl compounds” (ISIS Pharmaceuticals, Inc., priority 2000, dated 2005)", "key": {"[1]": {"test_system": "E. coli S30 bacterial extract", "experiment": "Coupled bacterial transcription/translation assay (luciferase reporter)", "assay_type": "biochemical", "procedure": "Coupled Bacterial Transcription/Translation Assay. The DNA template, pBestLuc™ (Promega), is a plasmid containing a reporter gene for firefly luciferase fused to a strong tac promoter and ribosome binding site. Messenger RNA from 1 μg pBestLuc was transcribed and translated in E. coli S30 bacterial extract in the presence or absence of test compound. Compounds were tested in a black 96 well microtiter plate with an assay volume of 35 μL. Each test well contained: 5 μL test compound, 13 μL S30 premix (Promega), 4 μL 10× complete amino acid mix (1 mM each), 5 μL E. coli S30 extract and 8 μL of 0.125 μg/μL pBestLuc™. The transcription/translation reaction was incubated for 35 minutes at 37° C. followed by detection of functional luciferase with the addition of 30 μL LucLite™ (Packard). Light output was quantitated on a Packard TopCount."}, "[2]": {"test_system": "S. pyogenes", "experiment": "Minimum inhibitory concentration (MIC), S. pyogenes", "assay_type": "cell-based", "settings": "Streptococcus pyogenes", "procedure": "(§1) Bacterial Strains. The Streptococcus pyogenes strains, Klebsiella pneumoniae, Escherichia coli, Staphylococcus aureus, Enterococcus faecalis used in the antibacterial activity studies ATCC 14289, 49399, 13883, 25922, 13709, 29212, respectively, are obtained from the American Type Culture Collection, Rockville, Md. The strain E. coli imp- is a mutant strain of wild type E. coli with increased outer membrane permeability and was grown in LB broth at 37 ° C. S. pyogenes strain is grown in Todd-Hewitt broth. S. aureus is grown in trypticase soy broth, E. faecalis in Todd-Hewitt broth, wild type E. coli and K. pneumoniae, in nutrient broth.\n(§2) Determination of Minimum Inhibitory Concentrations (MICs). The assays were carried out in […] volume in duplicate in 96-well clear flat-bottom plates. The bacterial suspension from an overnight culture growth in appropriate medium was added to a solution of test compound in 4% DMSO in water. Final bacterial inoculum was approximately 10^5-10^6 CFU/well. The percent growth of the bacteria in test wells relative to that observed for a well containing no compound was determined by measuring absorbance at 595 nm (A595) after 24 h. […] Both ampicillin and tetracycline is used as antibiotic-positive controls in each screening assay for S. pyogenes, E. coli imp-, E. coli, S. aureus, E. faecalis, K pneumoniae and P. vulgaris. Ciprofloxacin is used as an antibiotic positive control in each screening assay for P. aeruginosa."}, "[3]": {"test_system": "E. coli", "experiment": "Minimum inhibitory concentration (MIC), E. coli", "assay_type": "cell-based", "settings": "Escherichia coli, Table 6", "procedure": "as §1\nas §2, with “Ciprofloxacin is used as an antibiotic positive control in each screening assay for P. aeruginosa.” left out"}, "[4]": {"test_system": "E. hirae", "experiment": "Minimum inhibitory concentration (MIC), E. hirae", "assay_type": "cell-based", "settings": "Enterococcus hirae, Table 6", "procedure": "as §2"}, "[5]": {"test_system": "S. aureus", "experiment": "Minimum inhibitory concentration (MIC), S. aureus", "assay_type": "cell-based", "settings": "Staphylococcus aureus, Table 6", "procedure": "as §1\nas §2, with “Ciprofloxacin is used as an antibiotic positive control in each screening assay for P. aeruginosa.” left out"}, "[6]": {"test_system": "K. pneumoniae", "experiment": "Minimum inhibitory concentration (MIC), K. pneumoniae", "assay_type": "cell-based", "settings": "Klebsiella pneumoniae, Table 6", "procedure": "as §1\nas §2, with “Ciprofloxacin is used as an antibiotic positive control in each screening assay for P. aeruginosa.” left out"}, "[7]": {"test_system": "58 nucleotide fragment of E. coli 23S ribosomal RNA (23S rRNA)", "experiment": "Mass-spec binding assay (ESI-FTICR-MS)", "settings": "Table 5, amino acid spacer compounds; read-out: approx. Kd", "procedure": "Binding affinity of test compounds to a 58 nucleotide fragment of E. coli 23S ribosomal RNA (23S rRNA) was determined using electrospray ionization Fourier transform ion cyclotron resonance mass spectrometry (ESI-FTICR-MS). The structure of the 23S rRNA fragment and its preparation is described by Conn et al (Science, 1999, 284(5417):1171) and Hinck et al (J. Mol. Biol., 1997, 274(1): 101) both incorporated herein by reference. The mass spec assay determined the exact chemical composition of ligands that bound to the target rRNA and determined relative or absolute dissociation (KD) of ligands for the target. In the first step of the assay, a mixture of 23S rRNA target and test compound were moved from solution into the gas phase by electrospray ionization. The FT-ICR mass spectrometer served as a parallel set of “scales”, simultaneously measuring the exact molecular masses of the small molecules that bound to the RNA with great accuracy. The mass measurement error for an RNA-ligand complex weighing 10 kDa equals the mass of an electron. At this level of mass accuracy, each compound in the mixture was “labeled” by its molecular formula and exact molecular mass. […]"}, "[8]": {"settings": "S. pyogenes, Table 6, read-out: MIC"}, "[9]": {"settings": "Table 5, amino acid spacer compounds"}}, "note": "Where two headings read alike, the source gives them in different places.", "data": [{"molecule": "O=C(Nc1cccc(-c2ccc(C(=O)N3CCC[C@H]3C(=O)N3CCNCC3)s2)c1)c1ccc2[nH]c(=O)c(=O)[nH]c2c1", "values": [{"measurement": "IC50", "setting": "[1]; Table 4, heteroaryl compounds", "value": 25, "unit": "µM"}]}, {"molecule": "O=C(Nc1cccc(-c2ccc(C(=O)N3CCNCC3)o2)c1)c1ccc2[nH]c(=O)c(=O)[nH]c2c1", "values": [{"measurement": "IC50", "setting": "[1]; Table 4, heteroaryl compounds", "value": 25, "unit": "µM"}]}, {"molecule": "O=C(Nc1ccc(-c2ccc(C(=O)Nc3ccc(C(=O)N4CCNCC4)cc3)s2)cc1)c1ccc2[nH]c(=O)c(=O)[nH]c2c1", "values": [{"measurement": "IC50", "setting": "[1]; Table 4, heteroaryl compounds", "value": 30, "unit": "µM"}]}, {"molecule": "O=C(Nc1cccc(-c2ccc(S(=O)(=O)N3CCNCC3)s2)c1)c1ccc2[nH]c(=O)c(=O)[nH]c2c1", "values": [{"measurement": "IC50", "setting": "[1]; Table 4, heteroaryl compounds", "value": 35, "unit": "µM"}]}, {"molecule": "CCn1cc(C(=O)Nc2cccc(-c3ccc(C(=O)N4CCNCC4)s3)c2)c(=O)c2ccc(C)nc21", "values": [{"measurement": "MIC", "setting": "[2]; [8]", "value": "25 to 50", "unit": "µM"}, {"measurement": "MIC", "setting": "[3]", "value": "50 to 100", "unit": "µM"}, {"measurement": "MIC", "setting": "[4]", "value": "50 to 100", "unit": "µM"}, {"measurement": "MIC", "setting": "[5]", "value": "50 to 100", "unit": "µM"}, {"measurement": "MIC", "setting": "[6]", "value": "50 to 100", "unit": "µM"}]}, {"molecule": "O=C(c1ccc(-c2cccc(NS(=O)(=O)c3ccc4[nH]c(=O)c(=O)[nH]c4c3)c2)s1)N1CCNCC1", "values": [{"measurement": "IC50", "setting": "[1]; Table 4, heteroaryl compounds", "value": 80, "unit": "µM"}]}, {"molecule": "O=C(Nc1cccc(-c2ccc(C(=O)N3CCNCC3)s2)c1)c1ccc2[nH]c(=O)c(=O)[nH]c2c1", "note": "[drawing 51]", "values": [{"measurement": "IC50", "setting": "[1]; Table 4, heteroaryl compounds", "value": 25, "unit": "µM"}]}, {"molecule": "O=C(Nc1cccc(-c2ccc(C(=O)N3CCNCC3)s2)c1)c1ccc2[nH]c(=O)c(=O)[nH]c2c1", "note": "[Structure 1]", "values": [{"measurement": "IC50", "setting": "[1]; [9]", "value": 25, "unit": "µM"}, {"measurement": "Kd", "setting": "[7]", "value": 79, "unit": "µM"}]}, {"molecule": "O=C(Nc1ccc(-c2ccc(CN3CCNCC3)s2)cc1)c1ccc2[nH]c(=O)c(=O)[nH]c2c1", "values": [{"measurement": "IC50", "setting": "[1]; Table 4, heteroaryl compounds", "value": 55, "unit": "µM"}]}, {"molecule": "O=C(CNC(=O)c1ccc2[nH]c(=O)c(=O)[nH]c2c1)Nc1cccc(-c2ccc(C(=O)N3CCNCC3)s2)c1", "values": [{"measurement": "IC50", "setting": "[1]; Table 4, heteroaryl compounds", "value": 100, "unit": "µM"}]}, {"molecule": "O=C(Nc1cccc(-c2ccc(C(=O)NCCC(=O)N3CCNCC3)s2)c1)c1ccc2[nH]c(=O)c(=O)[nH]c2c1", "note": "[Structure 3]", "values": [{"measurement": "IC50", "setting": "[1]; [9]", "value": 35, "unit": "µM"}, {"measurement": "Kd", "setting": "[7]", "value": 139, "unit": "µM"}]}, {"molecule": "CCn1cc(C(=O)Nc2ccc(-c3ccc(C(=O)N4CCNCC4)s3)cc2)c(=O)c2ccc(C)nc21", "values": [{"measurement": "MIC", "setting": "[2]; [8]", "value": "50 to 100", "unit": "µM"}, {"measurement": "MIC", "setting": "[3]", "value": "50 to 100", "unit": "µM"}]}, {"molecule": "O=c1[nH]c2ccc(S(=O)(=O)Nc3cccc(-c4ccc(CN5CCNCC5)s4)c3)cc2[nH]c1=O", "values": [{"measurement": "IC50", "setting": "[1]; Table 4, heteroaryl compounds", "value": 80, "unit": "µM"}]}, {"molecule": "NCCC(NC(=O)c1ccc(-c2cccc(NC(=O)c3ccc4[nH]c(=O)c(=O)[nH]c4c3)c2)s1)C(=O)N1CCNCC1", "note": "(centres unmarked)", "values": [{"measurement": "MIC", "setting": "[2]", "value": "50 to 100", "unit": "µM"}]}, {"molecule": "O=C(Nc1ccc(-c2ccc(C(=O)N3CCNCC3)s2)cc1)c1ccc2[nH]c(=O)c(=O)[nH]c2c1", "values": [{"measurement": "IC50", "setting": "[1]; Table 4, heteroaryl compounds", "value": 50, "unit": "µM"}]}, {"molecule": "O=C(Nc1cccc(-c2nc(C(=O)N3CCNCC3)cs2)c1)c1ccc2[nH]c(=O)c(=O)[nH]c2c1", "values": [{"measurement": "IC50", "setting": "[1]; Table 4, heteroaryl compounds", "value": 75, "unit": "µM"}]}]}
